Source: publication PMC9271048, “Probing strigolactone perception mechanisms with rationally designed small-molecule agonists stimulating germination of root parasitic weeds” (Nature Communications, 2022)
Read-outs that look alike come from different tables or passages of the source.

How the values were obtained:
[1] = target: T1, ShHTL7 (Striga hermonthica, UniProt A0A0M3PNA2); experiment: biochemical; type: binding
Procedure: We used a sensitive, high-throughput Surface plasmon resonance (SPR) method to examine the binding affinities of the 51 candidates to the recombinant ShHTL7 protein, which was immobilized on the CM5 sensor chip. rac-GR24 was used as a positive control.
The interactions of small molecules with recombinant ShHTL7 were evaluated using the Biacore T200 system (GE Healthcare, USA) at 25 °C[47]. The purified ShHTL7 protein was immobilized on a CM5 sensor chip using the standard amine coupling procedure. […] PBS-P (10 mM phosphate buffer, 2.7 mM KCl, 137 mM NaCl, 0.05% Surfactant P20) containing 0.5% DMSO was used as the running buffer. For the screening experiments, candidates with different structures at 50 μM in the running buffer were injected individually at a flow rate of 30 μL min^−1. For binding affinity studies, compounds with different concentrations in running buffer were used. During the experiments, both the contact and dissociation times were set as 1 min. Data analysis was performed using the Biacore Evaluation Software (T200 Version 2.0). The affinity values (KD) were obtained by the kinetics analysis or the steady-state affinity method.

[2] = system: P. aegyptiaca seeds; experiment: P. aegyptiaca seed germination assay; type: in vivo, Phelipanche aegyptiaca; design: P. aegyptiaca germination EC50 values, source data average: unit not given here; P. aegyptiaca seed germination activity, source data average: unit of the concentration uncertain; settings: for P. aegyptiaca germination(%): Supplementary Table 1, compounds tested at 10 μM, means ± SD, n = 3; for P. aegyptiaca seed germination activity, source data average: Supplementary Fig. 9b
Procedure: P. aegyptiaca seeds were harvested from Xinjiang province, China in 2017. The seeds were surface sterilized using 1% NaClO solution for 2 min and then washed with distilled water six times. For seed germination assay, about 20 pieces of glass fiber-filter paper discs (15 mm diameter, Whatman GF/B) were placed separately on two layers of filter papers (9 cm diameter, Whatman) in a Petri dish. Five milliliters of distilled water was added to each Petri dish to wet the papers. Approximately 40–90 sterilized seeds were spread onto each glass fiber-filter paper disc. After the seeds were conditioned in the dark at 25 °C for 4 days[48], glass fiber-filter paper discs were blotted dry on filter papers (9 cm) and transferred to the wells of 24-well cell culture plates. The testing compounds were dissolved in acetone and diluted with H2O (VH2O/Vacetone = 999/1) just before use[49]. rac-GR24 and 1‰ acetone solution were used as positive and negative controls, respectively. One hundred microliters of the test solution was added to each well of the plates, and all treatments were performed in three biological repeats. The plates were sealed and incubated in the dark at 25 °C for a week. The experiments were performed at least three times. The germinated seeds were observed by using an electronic magnifier at ×20 magnification.

[3] = target: T1, ShHTL7; experiment: Competitive inhibition of ShHTL7 with Yoshimulactone Green (YLG) as substrate; type: biochemical
Procedure: Based on the structural feature of the lead compound 2h, we selected three regions to perform further modification (Supplementary Fig. 6), to try to further improve bioactivity. Insertion of a carbonyl group between the bicyclo[2.2.1]hept-5-en-2-yl group and the piperazine ring was detrimental to binding affinity (Supplementary Fig. 6, region A). Removal of an oxygen atom in region B was found unfavorable to binding affinity as well. Therefore, we focused on modifying the benzene ring (region C) for 2h. A series of compounds with different groups at region C was synthesized (Supplementary Scheme 1). […] As SPR just measures the binding ability, another independent assay by using Yoshimulactone Green (YLG) as the fluorescent substrate was performed to determine the half-maximal inhibitory concentration (IC50) of these compounds against ShHTL7[22].
The excitation and emission wavelengths of YLG are 480 and 520 nm, respectively. We used a fluorescence spectrophotometer (CARY Eclipse) to detect the fluorescence intensity change of YLG during the enzymatic hydrolysis assay process. All the testing compounds and YLG were dissolved in DMSO and prepared as stock solutions just before use. […] The changes of fluorescence at 520 nm of each well were recorded every 1 min for 30 min. Using the reaction mixture without adding enzyme and tested compounds as the background control. After subtracting the background hydrolysis, a linear fluorescence increase in 8 min was used for further inspection. The IC50 values were determined via fitting relative inhibition percentages with the varying concentrations of compounds in Microsoft Excel.

[4] = recombinant ShHTL7 immobilized on CM5 chip, 25 °C, read-out: KD (SPR)
[5] = IC50 (Supplementary Table 1), YLG used as the substrate, means ± SD, n = 3
[6] = YLG used as the substrate, means ± SD, n = 3, read-out: IC50 (Supplementary Table 1)
[7] = IC50, competitive ShHTL7 inhibition (YLG), source data average, wild-type ShHTL7, average of 3, source data of Fig. 2a,b, Supplementary Figs. 8a, 9a, 20b
[8] = YLG as substrate, text and Fig. 2, read-out: IC50, competitive ShHTL7 inhibition (YLG assay)
[9] = wild-type ShHTL7, average of 3, source data of Fig. 2a,b, Supplementary Figs. 8a, 9a, 20b, read-out: IC50, competitive ShHTL7 inhibition (YLG), source data average
[10] = Supplementary Table 7, binding affinities between ShHTL7 and agonists by SPR, read-out: KD/μM
[11] = source data of Fig. 2c and Supplementary Fig. 8b, average of 3

T1 sequence (A0A0M3PNA2 entry or part of it): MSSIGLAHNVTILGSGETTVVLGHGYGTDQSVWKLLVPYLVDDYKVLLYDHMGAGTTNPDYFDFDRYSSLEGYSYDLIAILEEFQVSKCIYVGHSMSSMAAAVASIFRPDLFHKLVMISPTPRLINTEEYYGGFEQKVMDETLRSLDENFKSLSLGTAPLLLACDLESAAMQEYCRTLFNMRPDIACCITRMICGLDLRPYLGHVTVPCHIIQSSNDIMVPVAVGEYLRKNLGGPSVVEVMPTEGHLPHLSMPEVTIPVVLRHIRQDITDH

## O=C(c1ccco1)N1CCN(CC2CC3C=CC2C3)CC1 (stereo not shown) [2a]
[1]; [4]
  Kd: 12.8 ± 0.6 µM

## O=C(c1cccs1)N1CCN(CC2CC=CCC2)CC1 (stereo not shown) [2b]
[1]
  Kd: 10.5 ± 0.67 µM

## COc1cc(C(=O)N2CCN(CC3CC4C=CC3C4)CC2)cc(OC)c1OC (stereo not shown) [2c]
[1]
  Kd: 6.66 ± 0.2 µM

## O=C(C(c1ccccc1)c1ccccc1)N1CCN(CC2CC3C=CC2C3)CC1 (stereo not shown) [2d]
[1]
  Kd: 5.22 ± 0.66 µM

## Cc1cccc(OCC(=O)N2CCN(CC3CC4C=CC3C4)CC2)c1 (stereo not shown) [2f]
[1]
  Kd: 11.2 ± 0.16 µM
[2]; 10 μM, Fig. 1d source data, average of 3
  germination of P. aegyptiaca seeds, source data average: 18.7364%
[2]
  P. aegyptiaca germination(%): 20.5%
[3]; [5]
  IC50: 10.7 ± 0.96 µM

## Cc1ccc(OCC(=O)N2CCN(C(=O)C3CC4C=CC3C4)CC2)cc1 (stereo not shown) [3a]
[2]
  P. aegyptiaca germination(%): 19.4%
[3]; [6]
  IC50: 35.6 ± 3.84 µM

## Cc1ccc(CC(=O)N2CCN(CC3CC4C=CC3C4)CC2)cc1 (stereo not shown) [3b]
[2]
  P. aegyptiaca germination(%): 8.9%
[3]; [6]
  IC50: 23.2 ± 1.59 µM

## O=C(COc1ccc2ccccc2c1Br)N1CCN(CC2CC3C=CC2C3)CC1 (stereo not shown) [3c]
[2]
  P. aegyptiaca germination(%): 17.1%
[3]; [6]
  IC50: 6.12 ± 0.34 µM

## Cc1cc(F)ccc1OCC(=O)N1CCN(CC2CC3C=CC2C3)CC1 (stereo not shown) [3d]
[1]; [4]
  Kd: 1.86 µM
[2]
  P. aegyptiaca germination(%): 23.1%
[3]; [6]
  IC50: 10.7 ± 2.93 µM

## Cc1cc(Cl)ccc1OCC(=O)N1CCN(CC2CC3C=CC2C3)CC1 (stereo not shown) [3e]
[1]; [4]
  Kd: 0.65 µM
[2]
  P. aegyptiaca germination(%): 7.0%
[3]; [6]
  IC50: 8.28 ± 1.12 µM

## Cc1cc(Br)ccc1OCC(=O)N1CCN(CC2CC3C=CC2C3)CC1 (stereo not shown) [3f]
[1]
  Kd: 0.18 µM
[2]
  P. aegyptiaca germination(%): 8.3%
[3]; [5]
  IC50: 7.45 ± 1.03 µM
[3]; [7]
  IC50: 6.11 µM

## O=C(COc1c(F)c(F)c(F)c(F)c1F)N1CCN(CC2CC3C=CC2C3)CC1 (stereo not shown) [3g]
[1]
  Kd: 0.47 µM
[2]
  P. aegyptiaca germination(%): 5.7%
[3]; [5]
  IC50: 0.23 ± 0.03 µM
[3]; [7]
  IC50: 2.08 µM

## Cc1cc([N+](=O)[O-])ccc1OCC(=O)N1CCN(CC2CC3C=CC2C3)CC1 (stereo not shown) [3h]
[2]
  P. aegyptiaca germination(%): 22.0%
[3]; [6]
  IC50: 10 ± 0.59 µM

## O=C(COc1ccc([N+](=O)[O-])cc1Cl)N1CCN(CC2CC3C=CC2C3)CC1 (stereo not shown) [3i]
[2]
  P. aegyptiaca germination(%): 33.5%
[3]; [6]
  IC50: 11.6 ± 0.61 µM

## O=C(COc1ccc(Cl)cc1Cl)N1CCN(CC2CC3C=CC2C3)CC1 (stereo not shown) [3j]
[2]
  P. aegyptiaca germination(%): 54.7%
[3]; [6]
  IC50: 9.22 ± 0.35 µM

## O=C(COc1cc(Cl)ccc1Cl)N1CCN(CC2CC3C=CC2C3)CC1 (stereo not shown) [3k]
[2]
  P. aegyptiaca germination(%): 43.5%
[3]; [6]
  IC50: 32.2 ± 1.99 µM

## O=C(COc1ccccc1)N1CCN(CC2CC3C=CC2C3)CC1 (stereo not shown) [3l]
[2]
  P. aegyptiaca germination(%): 26.3%
[3]; [6]
  IC50: 18 ± 1.32 µM

## Cc1ccccc1OCC(=O)N1CCN(CC2CC3C=CC2C3)CC1 (stereo not shown) [3m]
[2]
  P. aegyptiaca germination(%): 29.7%
[3]; [6]
  IC50: 9.16 ± 1.2 µM

## O=C(COc1ccc(C(F)(F)F)cc1)N1CCN(CC2CC3C=CC2C3)CC1 (stereo not shown) [3n]
[2]
  P. aegyptiaca germination(%): 47.8%
[3]; [6]
  IC50: 12.8 ± 2.97 µM

## O=C(COc1ccc(Cl)cc1)N1CCN(CC2CC3C=CC2C3)CC1 (stereo not shown) [3o]
[2]
  P. aegyptiaca germination(%): 21.4%
[3]; [6]
  IC50: 22 ± 2.43 µM

## O=C(COc1ccc([N+](=O)[O-])cc1)N1CCN(CC2CC3C=CC2C3)CC1 (stereo not shown) [3p]
[2]
  P. aegyptiaca germination(%): 18.6%
[3]; [6]
  IC50: 15.6 ± 0.37 µM

## CS(=O)(=O)c1ccc(OCC(=O)N2CCN(CC3CC4C=CC3C4)CC2)cc1 (stereo not shown) [3q]
[2]
  P. aegyptiaca germination(%): 34.8%
[3]; [6]
  IC50: 24.1 ± 6.49 µM

## Cc1ccc(CCC(=O)N2CCN(CC3CC4C=CC3C4)CC2)cc1 (stereo not shown) [3r]
[2]
  P. aegyptiaca germination(%): 34.2±6.9%
[3]; [6]
  IC50: 34.2 ± 6.9 µM

## CC1=CC(OC(=O)N2CCN(C(=O)COc3c(F)c(F)c(F)c(F)c3F)CC2)OC1=O (stereo not shown) [4b]
[1]
  Kd: 2.21 ± 0.42 µM
[2]; Phelipanche aegyptiaca, read-out: EC50, P. aegyptiaca seed germination
  EC50: ~0.0552 µM
[2]; Phelipanche aegyptiaca, source data of Fig. 2c and Supplementary Fig. 8b, average of 3, read-out: P. aegyptiaca germination EC50 values, source data average (converted)
  EC50: 0.0482 µM
[3]; [8]
  IC50: 3.03 ± 0.58 µM
[3]; [9]
  IC50: 3.03 µM

## CC1=CC(OC(=O)N2CCN(CC3CC4C=CC3C4)CC2)OC1=O (stereo not shown) [4c]
[1]; [10]
  Kd: 13.9 ± 2.6 µM
[2]; in vivo, read-out: EC50, P. aegyptiaca seed germination
  EC50: 0.00226 µM
[2]; [11]
  P. aegyptiaca germination EC50 values, source data average: 8.757
[3]; [8]
  IC50: 4.56 ± 0.78 µM
[3]; [9]
  IC50: 4.56 µM

## CC1=CC(OC(=O)N2CCN(C(=O)COc3ccc(F)cc3C)CC2)OC1=O (stereo not shown) [4d]
[1]; [10]
  Kd: 0.82 ± 0.26 µM
[2]; [11]
  P. aegyptiaca germination EC50 values, source data average: 8.181
[3]; [9]
  IC50: 3.78 µM

## CC1=CC(OC(=O)N2CCN(C(=O)COc3ccc(Cl)cc3C)CC2)OC1=O (stereo not shown) [4e]
[1]; [10]
  Kd: 6.33 ± 3.1 µM
[2]; [11]
  P. aegyptiaca germination EC50 values, source data average: 8.242
[3]; [9]
  IC50: 2.35 µM

## CC1=CC(OC(=O)N2CCN(C(=O)C(F)(F)Oc3ccc(Br)cc3C)CC2)OC1=O (stereo not shown) [4f]
[1]; [10]
  Kd: 1.96 ± 0.29 µM
[2]; [11]
  P. aegyptiaca germination EC50 values, source data average: 6.406
[3]; [9]
  IC50: 4.25 µM

## CCCCOc1ccc(S(=O)(=O)N2CCN(C(=O)OC3C=C(C)C(=O)N3C)CC2)cc1 (stereo not shown) [4j]
[1]; [10]
  Kd: 18.1 ± 6.29 µM
[2]; 0.1 (unit uncertain) as printed
  P. aegyptiaca seed germination activity, source data average: 4.315%
[2]; 1 (unit uncertain) as printed
  P. aegyptiaca seed germination activity, source data average: 14.0733%
[2]; 10 (unit uncertain) as printed
  P. aegyptiaca seed germination activity, source data average: 45.7326%
[3]; [9]
  IC50: 105 µM

## CCCCOc1ccc(S(=O)(=O)N2CCN(C(=O)OC3C=C(C)C(=O)O3)CC2)cc1 (stereo not shown) [SPL7, reference compound]
[1]; [10]
  Kd: 4.81 ± 0.02 µM
[2]; [11]
  P. aegyptiaca germination EC50 values, source data average: 7.443
[3]; [9]
  IC50: 4.31 µM

## C1=CC2CC1CC2CN1CCNCC1 (stereo not shown) [ZJT1]
[2]
  P. aegyptiaca germination(%): 1.6%
[3]; YLG used as the substrate, read-out: IC50 (Supplementary Table 1), symbol
  IC50: > 400 µM
